What was measured:
Assay in all cases: Test D controlled growth environment herbicide test, pre- and postemergence
Type in all cases: in vivo
[1] = test system: barley, spring (spring barley, Hordeum vulgare)
Summary of the method: (§1)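 Species sown in silt loam and sprayed preemergence, or grown in peat-based medium to 2–18 cm (1- to 4-leaf stage) and sprayed postemergence, with compounds in non-phytotoxic solvent plus surfactant. Visual injury scored versus controls after 14–21 d in a controlled environment, 0 (no effect) to 100 (complete control).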

[2] = test system: pigweed (Amaranthus retroflexus)
Summary of the method: as §1

[3] = test system: windgrass (Apera spica-venti)
Summary of the method: as §1

[4] = test system: lambsquarters (Chenopodium album)
Summary of the method: as §1

[5] = test system: buckwheat, wild (wild buckwheat, Polygonum convolvulus)
Summary of the method: as §1

[6] = test system: bluegrass (annual bluegrass, Poa annua)
Summary of the method: as §1

[7] = test system: field poppy (Papaver rhoeas)
Summary of the method: as §1

[8] = test system: canarygrass (Phalaris minor)
Summary of the method: as §1

[9] = test system: barley, winter (winter barley, Hordeum vulgare)
Summary of the method: as §1

[10] = test system: radish, wild (wild radish, Raphanus raphanistrum)
Summary of the method: as §1

kochia (Kochia scoparia) = test system: kochia (Kochia scoparia)
Summary of the method: as §1

[11] = test system: galium (catchweed bedstraw, Galium aparine)
Summary of the method: as §1

[12] = test system: chamomile (scentless chamomile, Matricaria inodora)
Summary of the method: as §1

[13] = test system: field violet (Viola arvensis)
Summary of the method: as §1

[14] = Postemergence, 31 g ai/ha, scale 0 to 100 (0 no effect, 100 complete control)
[15] = Postemergence, 125 g ai/ha, visual rating on scale 0 (no effect) to 100 (complete control), 14 to 21 d
[16] = Postemergence, 250 g ai/ha, scale 0 to 100 (0 no effect, 100 complete control)
[17] = Preemergence, 62 g ai/ha, scale 0 to 100 (0 no effect, 100 complete control)
[18] = Preemergence, 125 g ai/ha, scale 0 to 100 (0 no effect, 100 complete control)
[19] = Preemergence, 250 g ai/ha, scale 0 to 100, 0 no effect, 100 complete control
[20] = postemergence, 62 g ai/ha, scale 0 to 100, 0 no effect, 100 complete control

Cc1nn(C)c(=O)c(-c2cccc3ccccc23)c1O [Compound 11, 5-hydroxy-2,6-dimethyl-4-(1-naphthalenyl)-3(2H)-pyridazinone]
Plant response rating, Barley, Spring [1, 14]: 0 | Plant response rating, Barley, Spring [1, 15]: 10 | Plant response rating, Barley, Spring [1, 16]: 10 | Plant response rating (scale of 0 to 100), Barley, Spring ([1]; Preemergence, 31 g ai/ha): 5 | Plant response rating, Barley, Spring [1, 17]: 5 | Plant response rating, Barley, Spring [1, 18]: 10 | Barley, Spring plant response rating [1, 19]: 15 | Plant response rating, Barley, Spring [1, 20]: 0 | Pigweed plant response rating [2, 14]: 35 | Plant response rating, Pigweed [2, 15]: 95 | Plant response rating, Pigweed [2, 16]: 100 | Plant response rating (scale of 0 to 100), Pigweed ([2]; Preemergence, 31 g ai/ha): 0 | Plant response rating, Pigweed [2, 17]: 0 | Plant response rating, Pigweed [2, 18]: 98 | Plant response rating, Pigweed [2, 19]: 100 | Plant response rating, Pigweed [2, 20]: 65 | Windgrass plant response rating [3, 14]: 10 | Plant response rating, Windgrass [3, 15]: 15 | Plant response rating, Windgrass [3, 16]: 20 | Plant response rating (scale of 0 to 100), Windgrass ([3]; Preemergence, 31 g ai/ha): 25 | Plant response rating, Windgrass [3, 17]: 35 | Plant response rating, Windgrass [3, 18]: 55 | Plant response rating, Windgrass [3, 19]: 75 | Plant response rating, Windgrass [3, 20]: 10 | Lambsquarters plant response rating [4, 14]: 60 | Plant response rating, Lambsquarters [4, 15]: 80 | Plant response rating, Lambsquarters [4, 16]: 85 | Plant response rating (scale of 0 to 100), Lambsquarters ([4]; Preemergence, 31 g ai/ha): 25 | Plant response rating, Lambsquarters [4, 17]: 35 | Plant response rating, Lambsquarters [4, 18]: 100 | Plant response rating, Lambsquarters [4, 19]: 100 | Plant response rating, Lambsquarters [4, 20]: 80 | Buckwheat, Wild plant response rating [5, 14]: 45 | Plant response rating, Buckwheat, Wild [5, 15]: 60 | Plant response rating, Buckwheat, Wild [5, 16]: 95 | Plant response rating (scale of 0 to 100), Buckwheat, Wild ([5]; Preemergence, 31 g ai/ha): 20 | Plant response rating, Buckwheat, Wild [5, 17]: 15 | Plant response rating, Buckwheat, Wild [5, 18]: 15 | Plant response rating, Buckwheat, Wild [5, 19]: 25 | Plant response rating, Buckwheat, Wild [5, 20]: 45 | Bluegrass plant response rating [6, 14]: 5 | Plant response rating, Bluegrass [6, 15]: 5 | Plant response rating, Bluegrass [6, 16]: 15 | Plant response rating (scale of 0 to 100), Bluegrass ([6]; Preemergence, 31 g ai/ha): 10 | Plant response rating, Bluegrass [6, 17]: 15 | Plant response rating, Bluegrass [6, 18]: 30 | Bluegrass plant response rating [6, 19]: 55 | Plant response rating, Bluegrass [6, 20]: 5 | Field Poppy plant response rating [7, 14]: 35 | Plant response rating, Field Poppy [7, 15]: 80 | Plant response rating, Field Poppy [7, 16]: 100 | Plant response rating (scale of 0 to 100), Field Poppy ([7]; Preemergence, 31 g ai/ha): 75 | Plant response rating, Field Poppy [7, 17]: 75 | Plant response rating, Field Poppy [7, 18]: 100 | Plant response rating, Field Poppy [7, 19]: 100 | Plant response rating, Field Poppy [7, 20]: 85 | Canarygrass plant response rating [8, 14]: 10 | Plant response rating, Canarygrass [8, 15]: 30 | Plant response rating, Canarygrass [8, 16]: 55 | Plant response rating (scale of 0 to 100), Canarygrass ([8]; Preemergence, 31 g ai/ha): 45 | Plant response rating, Canarygrass [8, 17]: 55 | Plant response rating, Canarygrass [8, 18]: 90 | Plant response rating, Canarygrass [8, 19]: 90 | Plant response rating, Canarygrass [8, 20]: 20 | Plant response rating, Barley, Winter [9, 14]: 20 | Plant response rating, Barley, Winter [9, 15]: 25 | Plant response rating, Barley, Winter [9, 16]: 40 | Plant response rating (scale of 0 to 100), Barley, Winter ([9]; Preemergence, 31 g ai/ha): 5 | Plant response rating, Barley, Winter [9, 17]: 5 | Plant response rating, Barley, Winter [9, 18]: 5 | Barley, Winter plant response rating [9, 19]: 20 | Plant response rating, Barley, Winter [9, 20]: 20 | Radish, Wild plant response rating [10, 14]: 50 | Plant response rating, Radish, Wild [10, 15]: 60 | Plant response rating, Radish, Wild [10, 16]: 85 | Plant response rating (scale of 0 to 100), Radish, Wild ([10]; Preemergence, 31 g ai/ha): 10 | Plant response rating, Radish, Wild [10, 17]: 15 | Plant response rating, Radish, Wild [10, 18]: 20 | Plant response rating, Radish, Wild [10, 19]: 25 | Plant response rating, Radish, Wild [10, 20]: 30 | Kochia plant response rating (kochia (Kochia scoparia); [14]): 60 | Plant response rating, Kochia (kochia (Kochia scoparia); [15]): 85 | Plant response rating, Kochia (kochia (Kochia scoparia); [16]): 100 | Plant response rating (scale of 0 to 100), Kochia (kochia (Kochia scoparia); Preemergence, 31 g ai/ha): 10 | Plant response rating, Kochia (kochia (Kochia scoparia); [17]): 40 | Plant response rating, Kochia (kochia (Kochia scoparia); [18]): 75 | Plant response rating, Kochia (kochia (Kochia scoparia); [19]): 95 | Plant response rating, Kochia (kochia (Kochia scoparia); [20]): 75 | Galium plant response rating [11, 14]: 85 | Plant response rating, Galium [11, 15]: 90 | Plant response rating, Galium [11, 16]: 90 | Plant response rating (scale of 0 to 100), Galium ([11]; Preemergence, 31 g ai/ha): 70 | Plant response rating, Galium [11, 17]: 80 | Plant response rating, Galium [11, 18]: 100 | Plant response rating, Galium [11, 19]: 100 | Plant response rating, Galium [11, 20]: 85 | Chamomile plant response rating [12, 14]: 40 | Plant response rating, Chamomile [12, 15]: 75 | Plant response rating, Chamomile [12, 16]: 90 | Plant response rating, Chamomile [12, 20]: 65 | Field Violet plant response rating [13, 14]: 65 | Plant response rating, Field Violet [13, 15]: 75 | Plant response rating, Field Violet [13, 16]: 90 | Plant response rating (scale of 0 to 100), Field Violet ([13]; Preemergence, 31 g ai/ha): 85 | Plant response rating, Field Violet [13, 17]: 100 | Plant response rating, Field Violet [13, 18]: 100 | Plant response rating, Field Violet [13, 19]: 100 | Plant response rating, Field Violet [13, 20]: 65

Reference: patent US10597388B2, “Pyridazinone herbicides” (FMC CORPORATION, priority 2014, dated 2020)
